Source: patent publication US10123985B2, “Therapeutic strategies for treating mitochondrial disorders” (Whitehead Institute for Biomedical Research, priority 2015, dated 2018)
“Also recorded” adds a separate entry of the source.

What was measured:
143B CytB cells [1] = assay: GC-MS of AKB and AHB concentration in the media during proliferation assay; format: cell-based; conditions: media of 143B CytB cells proliferating with AKB
Procedure: FIG. 1. Cytochrome B mutant 143B cybrid cells are auxotrophic for oxidized substrates that can regenerate NAD^+. (A) Proliferation rate of 143B CytB cells was determined in the presence or absence of pyruvate. (left) Cells were normalized to cell number at t=0 when media conditions were applied. (B) A major fate of pyruvate is as a substrate of lactate dehydrogenase (LDH) where it accepts electrons from NADH to produce NAD^+ and lactate. (C) α-Ketobutyrate (AKB) can act as an alternative electron acceptor substrate for LDH, yielding NAD^+ α-hydroxybutyrate (AHB). (D) Proliferation rate for 143B CytB cells in the presence or absence of AKB was determined as in (A). (E) Intracellular ratio of NAD^+/NADH was determined in 143B CytB cells in untreated media or in the presence of pyruvate (Pyr) or AKB. (F) The concentration of AKB and AHB in the media was determined by GC-MS analysis for each day of a proliferation assay of 143B CytB cells in the presence of AKB as in (D). […]
Given the chemical structure differences between AKB and pyruvate, they cannot share direct carbon-fates, thus we reasoned that AKB is likely being used predominantly as an electron acceptor and not as a carbon substrate in metabolic pathways. To verify this we measured the consumption rate of AKB and the excretion rate of the reduced product, α-hydroxybutyrate (AHB), formed upon NAD^+ regeneration (FIG. 1C). […]

143B cells = assay: Mitochondrial oxygen consumption (Seahorse XF24), cells treated with respiration inhibitors; format: cell-based; conditions: ETC inhibitors plus AKB
Procedure: Oxygen consumption rates were determined on a Seahorse Bioscience Extracellular Flux Analyzer (XF24). Cells were plated in Seahorse Bioscience 24 well plates at 6E4 cells per well in 100 μL complete DMEM, allowed to attach for 1 hour, and 500 μl complete DMEM was added before overnight incubation. The following day cells were washed 2 times in assay media: DMEM without phenol red or pyruvate containing 0.5% dialyzed FBS and 0.1 mg/mL uridine at pH 7.4 and incubated in 500 μL of the same media for the assay.

143B CytB cells [2] = assay: Amino acid and TCA cycle metabolite GC-MS analysis, 143B CytB cells; format: cell-based; conditions: AKB withdrawal
Procedure: 143B and 143B CytB cells were seeded at 400,000 cells/well in 6 well dishes overnight. The following day, cells were washed 2 times in PBS and media was changed to proliferation assay media with or without the indicated treatments. After 8 hours, polar metabolites were extracted using 80% methanol in water with 1 μg norvaline per sample. Soluble content was then dried under nitrogen gas. Polar samples were derivatized and measured as detailed in (Lewis). Relative metabolite abundances were determined by integrating ion peak area (Metran) and normalized to norvaline internal extraction standard.

Jurkat cells [3] = assay: NAD+ and NADH measurements in Jurkat cells; format: cell-based, human; conditions: wild type Jurkat cells, phenformin (10 μM), aspartate (10 mM)
Procedure: Measurement of NAD^+/NADH was done by modification of manufacturer instructions for NAD^+/NADH Glo Assay (Promega). Jurkat cells were incubated in RPMI under the conditions listed for 8 hours before cell extracts were taken. To extract NAD^+/NADH, cells were centrifuged for 1 minute at 300×g, and washed 3 times by quickly resuspending in 15 mL PBS and centrifuging for 1 minute at 300×g. Pelleted samples were extracted in 100 μL ice cold lysis buffer (1% Dodecyltrimethylammonium bromide (DTAB) in 0.2 N NaOH diluted 1:1 with PBS) and frozen at −80° C. To measure NADH, 20 μL of extracts were heated to 75° C. for 30 min in the basic lysis buffer to degrade NAD^+. To measure NAD^+, samples were diluted 1:1 with 0.4 N HCl and incubated at 60° C. for 15 min where acidic conditions will degrade NADH. Following incubations, samples were quenched by adding 20 μL of 0.25 M Tris, 0.2 N HCl (NADH) or 20 μL of 0.5 M Tris base (NAD^+). Manufacturer instructions were then followed to measure NAD^+/NADH.

Jurkat cells [4] = assay: Metabolite profiling (LC/MS) of Jurkat cells; format: cell-based, human; conditions: pyruvate 1 mM
Procedure: LC/MS analyses were conducted on a QExactive benchtop orbitrap mass spectrometer equipped with an Ion Max source and a HESI II probe, which was coupled to a Dionex UltiMate 3000 UPLC system (Thermo Fisher Scientific, San Jose, Calif.). External mass calibration was performed using the standard calibration mixture every 7 days.
Polar metabolites were extracted using 1 ml of ice-cold 80% methanol with 10 ng/ml valine-d8 as an internal standard. After a 10 min vortex and centrifugation for 10 min at 4° C. at 10,000 g, samples were dried under nitrogen gas. Dried samples were stored at −80° C. and then resuspended in 100 μL water; 1 μl of each sample was injected onto a ZIC-pHILIC 2.1×150 mm (5 μm particle size) column (EMD Millipore). Buffer A was 20 mM ammonium carbonate, 0.1% ammonium hydroxide; buffer B was acetonitrile. The chromatographic gradient was run at a flow rate of 0.150 ml/min as follows: 0-20 min.: linear gradient from 80% to 20% B; 20-20.5 min.: linear gradient from 20% to 80% B; 20.5-28 min.: hold at 80% B. The mass spectrometer was operated in fullscan, polarity switching mode with the spray voltage set to 3.0 kV, the heated capillary held at 275° C., and the HESI probe held at 350° C. The sheath gas flow was set to 40 units, the auxiliary gas flow was set to 15 units, and the sweep gas flow was set to 1 unit. The MS data acquisition was performed in a range of 70-1000 m/z, with the resolution set at 70,000, the AGC target at 106, and the maximum injection time at 80 msec. Relative quantitation of polar metabolites was performed with XCalibur QuanBrowser 2.2 (Thermo Fisher Scientific) using a 5 ppm mass tolerance and referencing an in-house library of chemical standards.

Q: For CCC(=O)C(=O)O [AKB, α-ketobutyrate], which “Consumption rate of AKB versus excretion rate of AHB” value (143B CytB cells [1]) is on record?
A: The value was “the consumption rate of AKB matched the excretion rate of AHB”.

Q: What about the O2 consumption (143B cells) of the same compound?
A: Its O2 consumption is “no effect on O2 consumption”.

Q: What about the “Aspartate intracellular pool size” value (143B CytB cells [2]) of the same compound?
A: The value was “also decreased”.

Q: What about the “Glutamate intracellular pool size” value (143B CytB cells [2]) of the same compound?
A: The value was “only modestly decreased”.

Q: And the “TCA cycle metabolite pool sizes” value (143B CytB cells [2])?
A: Its value is “drastically lowered”.

Q: Which “NAD+/NADH ratio in cells with ETC inhibition” value (Jurkat cells [3]) does the source give for N[C@@H](CC(=O)O)C(=O)O [aspartate] here?
A: Its value is “did not restore the NAD/NADH ratio in cells with ETC inhibition; also recorded: does not increase the NAD^+/NADH ratio in cells with ETC inhibition”.

Q: Which “Aspartate synthesis with pyruvate” value (Jurkat cells [4]; MDH1-null Jurkat cells treated with ETC inhibitors) does the source give for CC(=O)C(=O)O [pyruvate] here?
A: Its value is “did not stimulate aspartate synthesis; also recorded: depends on MDH1”.

Q: And the “Aspartate levels with pyruvate” value (Jurkat cells [4]; phenformin-treated (10 μM, 24 hours) GOT1-null Jurkat cells)?
A: The value was “no effect on aspartate”.

Q: And the “Aspartate levels with pyruvate” value (Jurkat cells [4]; phenformin-treated (10 μM, 24 hours) wild type Jurkat cells)?
A: The value was “increases cellular aspartate levels in a GOT1-dependent manner; also recorded: restored aspartate levels to normal in phenformin-treated wild type cells”.
